Source: PubChem BioAssay (NCI)
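Grown in 96-well plates, cells were treated for 48 hours with each compound at five concentrations. Insufficient inhibition: endpoint recorded as highest concentration tested. The concentration for 50% growth inhibition is given as GI50. TGI: concentration producing complete growth inhibition.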

What was measured:
Assay in all cases: NCI-60 cell line screen, 48 h
SF-295 CNS = tested on: SF-295 CNS
NCI-H522 lung = tested on: NCI-H522 lung
TK-10 renal = tested on: TK-10 renal
SW-620 colon = tested on: SW-620 colon
LOX IMVI melanoma = tested on: LOX IMVI melanoma
SNB-75 CNS = tested on: SNB-75 CNS
CCRF-CEM leukemia = tested on: CCRF-CEM leukemia
MDA-MB-435 = tested on: MDA-MB-435
SK-MEL-28 melanoma = tested on: SK-MEL-28 melanoma
RPMI-8226 leukemia = tested on: RPMI-8226 leukemia
T-47D breast = tested on: T-47D breast
HCC-2998 colon = tested on: HCC-2998 colon
UO-31 renal = tested on: UO-31 renal
DU-145 prostate = tested on: DU-145 prostate
NCI-H226 lung = tested on: NCI-H226 lung
MOLT-4 leukemia = tested on: MOLT-4 leukemia
NCI-H460 lung = tested on: NCI-H460 lung
SF-539 CNS = tested on: SF-539 CNS
CAKI-1 renal = tested on: CAKI-1 renal
HOP-92 NSCLC = tested on: HOP-92 NSCLC
SF-268 CNS = tested on: SF-268 CNS
OVCAR-5 ovarian = tested on: OVCAR-5 ovarian
SNB-19 CNS = tested on: SNB-19 CNS
SN12C renal = tested on: SN12C renal
IGROV1 ovarian = tested on: IGROV1 ovarian
OVCAR-3 ovarian = tested on: OVCAR-3 ovarian
RXF 393 renal = tested on: RXF 393 renal
UACC-257 melanoma = tested on: UACC-257 melanoma
SR leukemia = tested on: SR leukemia
UACC-62 melanoma = tested on: UACC-62 melanoma
HT29 colon = tested on: HT29 colon
SK-MEL-2 melanoma = tested on: SK-MEL-2 melanoma
HS 578T breast = tested on: HS 578T breast
MCF7 breast = tested on: MCF7 breast
NCI-H23 lung = tested on: NCI-H23 lung
HCT-15 colon = tested on: HCT-15 colon
A549 NSCLC = tested on: A549 NSCLC
COLO 205 colon = tested on: COLO 205 colon
OVCAR-4 ovarian = tested on: OVCAR-4 ovarian
HCT-116 colon = tested on: HCT-116 colon
SK-OV-3 ovarian = tested on: SK-OV-3 ovarian
EKVX NSCLC = tested on: EKVX NSCLC
SK-MEL-5 melanoma = tested on: SK-MEL-5 melanoma
M14 melanoma = tested on: M14 melanoma
K-562 leukemia = tested on: K-562 leukemia
U251 CNS = tested on: U251 CNS
HOP-62 NSCLC = tested on: HOP-62 NSCLC
KM12 colon = tested on: KM12 colon
MDA-MB-231 breast = tested on: MDA-MB-231 breast
786-0 renal = tested on: 786-0 renal
A498 renal = tested on: A498 renal
OVCAR-8 ovarian = tested on: OVCAR-8 ovarian
MALME-3M melanoma = tested on: MALME-3M melanoma
PC-3 prostate = tested on: PC-3 prostate
NCI/ADR-RES ovarian = tested on: NCI/ADR-RES ovarian
BT-549 breast = tested on: BT-549 breast

SMILES: Cc1nc(Nc2cccnc2)sc1C(=O)/C=C/c1ccc(Cl)cc1
- GI50 (SF-295 CNS): 2.79 µM
- TGI (SF-295 CNS): 19.1 µM
- GI50 (NCI-H522 lung): 2.14 µM
- TGI (NCI-H522 lung): 5.33 µM
- GI50 (TK-10 renal): 3.53 µM
- TGI (TK-10 renal): 12.1 µM
- GI50 (SW-620 colon): 2.08 µM
- TGI (SW-620 colon): 4.75 µM
- GI50 (LOX IMVI melanoma): 1.83 µM
- TGI (LOX IMVI melanoma): 3.75 µM
- GI50 (SNB-75 CNS): 2.82 µM
- TGI (SNB-75 CNS): 14.7 µM
- GI50 (CCRF-CEM leukemia): 3.31 µM
- TGI (CCRF-CEM leukemia): > 100 µM
- GI50 (MDA-MB-435): 2.26 µM
- TGI (MDA-MB-435): 6.46 µM
- GI50 (SK-MEL-28 melanoma): 3.04 µM
- TGI (SK-MEL-28 melanoma): 14.7 µM
- GI50 (RPMI-8226 leukemia): 2.5 µM
- TGI (RPMI-8226 leukemia): 9.03 µM
- GI50 (T-47D breast): 2.57 µM
- TGI (T-47D breast): 29.4 µM
- GI50 (HCC-2998 colon): 3.06 µM
- TGI (HCC-2998 colon): 10.5 µM
- GI50 (UO-31 renal): 1.81 µM
- TGI (UO-31 renal): 4.61 µM
- GI50 (DU-145 prostate): 3.57 µM
- TGI (DU-145 prostate): 19.8 µM
- GI50 (NCI-H226 lung): 2.75 µM
- TGI (NCI-H226 lung): 8.12 µM
- GI50 (MOLT-4 leukemia): 3.49 µM
- TGI (MOLT-4 leukemia): > 100 µM
- GI50 (NCI-H460 lung): 3.5 µM
- TGI (NCI-H460 lung): 13.8 µM
- GI50 (SF-539 CNS): 2.03 µM
- TGI (SF-539 CNS): 5.26 µM
- GI50 (CAKI-1 renal): 3.15 µM
- TGI (CAKI-1 renal): 15.1 µM
- GI50 (HOP-92 NSCLC): 3.23 µM
- TGI (HOP-92 NSCLC): 15.2 µM
- GI50 (SF-268 CNS): 4.34 µM
- TGI (SF-268 CNS): > 100 µM
- GI50 (OVCAR-5 ovarian): 2.87 µM
- TGI (OVCAR-5 ovarian): 31.2 µM
- GI50 (SNB-19 CNS): 2.31 µM
- TGI (SNB-19 CNS): 5.99 µM
- GI50 (SN12C renal): 2.91 µM
- TGI (SN12C renal): 9.13 µM
- GI50 (IGROV1 ovarian): 3.29 µM
- TGI (IGROV1 ovarian): > 100 µM
- GI50 (OVCAR-3 ovarian): 3.27 µM
- TGI (OVCAR-3 ovarian): 16.2 µM
- GI50 (RXF 393 renal): 2.43 µM
- TGI (RXF 393 renal): 5.46 µM
- GI50 (UACC-257 melanoma): 9.22 µM
- TGI (UACC-257 melanoma): > 100 µM
- GI50 (SR leukemia): 2.3 µM
- TGI (SR leukemia): > 100 µM
- GI50 (UACC-62 melanoma): 2.32 µM
- TGI (UACC-62 melanoma): 5.84 µM
- GI50 (HT29 colon): 2.85 µM
- TGI (HT29 colon): 9.43 µM
- GI50 (SK-MEL-2 melanoma): 3.97 µM
- TGI (SK-MEL-2 melanoma): 18.3 µM
- GI50 (HS 578T breast): 4.11 µM
- TGI (HS 578T breast): > 100 µM
- GI50 (MCF7 breast): 1.92 µM
- TGI (MCF7 breast): 10.7 µM
- GI50 (NCI-H23 lung): 3.43 µM
- TGI (NCI-H23 lung): 40.8 µM
- GI50 (HCT-15 colon): 1.59 µM
- TGI (HCT-15 colon): 4.03 µM
- GI50 (A549 NSCLC): 3.32 µM
- TGI (A549 NSCLC): > 100 µM
- GI50 (COLO 205 colon): 2.53 µM
- TGI (COLO 205 colon): 6.47 µM
- GI50 (OVCAR-4 ovarian): 5.14 µM
- TGI (OVCAR-4 ovarian): > 100 µM
- GI50 (HCT-116 colon): 1.85 µM
- TGI (HCT-116 colon): 5.03 µM
- GI50 (SK-OV-3 ovarian): 3.88 µM
- TGI (SK-OV-3 ovarian): > 100 µM
- GI50 (EKVX NSCLC): 6.99 µM
- TGI (EKVX NSCLC): > 100 µM
- GI50 (SK-MEL-5 melanoma): 4.59 µM
- TGI (SK-MEL-5 melanoma): 35.5 µM
- GI50 (M14 melanoma): 3.13 µM
- TGI (M14 melanoma): 19.5 µM
- GI50 (K-562 leukemia): 2.62 µM
- TGI (K-562 leukemia): > 100 µM
- GI50 (U251 CNS): 1.81 µM
- TGI (U251 CNS): 3.72 µM
- GI50 (HOP-62 NSCLC): 2.56 µM
- TGI (HOP-62 NSCLC): 7.6 µM
- GI50 (KM12 colon): 1.98 µM
- TGI (KM12 colon): 4.19 µM
- GI50 (MDA-MB-231 breast): 4.7 µM
- TGI (MDA-MB-231 breast): > 100 µM
- GI50 (786-0 renal): 1.95 µM
- TGI (786-0 renal): 6.48 µM
- GI50 (A498 renal): 49.5 µM
- TGI (A498 renal): > 100 µM
- GI50 (OVCAR-8 ovarian): 3.84 µM
- TGI (OVCAR-8 ovarian): > 100 µM
- GI50 (MALME-3M melanoma): 3.3 µM
- TGI (MALME-3M melanoma): 23.6 µM
- GI50 (PC-3 prostate): 3.27 µM
- TGI (PC-3 prostate): 12 µM
- GI50 (NCI/ADR-RES ovarian): 3.03 µM
- TGI (NCI/ADR-RES ovarian): 11.1 µM
- GI50 (BT-549 breast): 2.2 µM
- TGI (BT-549 breast): 7.22 µM
